We go through three molecules from publication PMC7193532 (Acta Crystallographica. Section D, Structural Biology, 2020).

Targets include ClpC1-FL Q17A (Mycobacterium tuberculosis, UniProt P9WPC9, Q17A); ClpC1-FL K85A (Mycobacterium tuberculosis, UniProt P9WPC9, K85A); ClpC1-FL L92S/L96P (Mycobacterium tuberculosis, UniProt P9WPC9, L92S/L96P); ClpC1-NTD AAFER (Mycobacterium tuberculosis, UniProt P9WPC9); ClpC1-FL V14A (Mycobacterium tuberculosis, UniProt P9WPC9, V14A).
Format in all cases: binding
For the next assay, the target named is ClpC1-NTD MAFER (Mycobacterium tuberculosis, UniProt P9WPC9). The note with it: relative to wild type.
A further assay addresses ClpC1-NTD MVFER (Mycobacterium tuberculosis, UniProt P9WPC9). The note with it: relative to wild type.
Another assay has as its target ClpC1-NTD FER (Mycobacterium tuberculosis, UniProt P9WPC9). The note with it: relative to wild type.

*1 amine or outer side, *2 acyl side, *3 side chain or, on linkers, in order; H or OH if unused. Where a SMILES comes first, the peptide text is derived from it. Bridges are numbered along the chain shown (N, C = ends). [ ]: non-standard residue; d: D form. The star is where a group is joined. ξ: configuration not given here. Phe(3R-OH) = O=C([C@@H](N[*:1])[C@H](O[*:3])c1ccccc1)[*:2]; NMeTrp(4-OMe) = CN[CH](Cc1c[nH]c2cccc(OC)c12)C(=O)O; X1 = O=C(C(N[*:1])C(O)c1ccccc1)[*:2]; NMeT = CN[CH](C(=O)O)[CH](C)O; NMeI = CC[CH](C)[CH](NC)C(=O)O; ξNMe2Val = CC(C)C(C(=O)*)N(C)C; NMeL = CN[CH](CC(C)C)C(=O)O; NMeV = CN[CH](C(=O)O)C(C)C

`CCC(C)C(C(=O)NC1C(=O)N(C)C(C(C)O)C(=O)NC(C(C)C)C(=O)N(C)C(CC(C)C)C(=O)NC(C(C)C)C(=O)N(C)C(C(C)C)C(=O)N(C)C(Cc2c[nH]c3cccc(OC)c23)C(=O)NC(C(C)C)C(=O)NC(C(O)c2ccccc2)C(=O)NC(C(C)C)C(=O)OC1C)N(C)C(=O)C(NC(=O)C(C(C)C)N(C)C)C(C)C` (centres unmarked) [ECU, ecumicin] (ξNMe2Val-V[NMeI]T[NMeT]V[NMeL]V[NMeV][NMeTrp(4-OMe)]V[X1]V; ester 3-C; configuration not given here): the “reduction of binding, Q17A” value on ClpC1-FL Q17A was “sevenfold”. Besides, at ClpC1-FL K85A, the “reduction of binding affinity, K85A” value is on record as “ninefold”. Also, the “binding to double mutant L92S/L96P (in words)” value at ClpC1-FL L92S/L96P is “abolished binding”. On ClpC1-NTD MAFER, the “decrease of binding, insertion of Ala before Phe2” value is listed as 72 fold. Moreover, the “reduction of binding, insertion of Val before Phe2” value on ClpC1-NTD MVFER was found to be 82 fold. Besides, on ClpC1-NTD FER, the “reduction of binding affinity, deletion of Met1” value is listed as 62 fold. Further, the “reduction of binding affinity, Met1Ala mutation and Ala insertion” value at ClpC1-NTD AAFER came to 68 fold.

Take `CN[C@H](C(=O)N[C@H](C(=O)N[C@@H]1C(=O)N(C)[C@@H]([C@@H](C)O)C(=O)N[C@@H](C(C)C)C(=O)N(C)[C@@H](CC(C)C)C(=O)N[C@@H](C(C)C)C(=O)N(C)[C@@H](C(C)C)C(=O)N(C)[C@@H](Cc2c[nH]c3cccc(OC)c23)C(=O)N[C@@H](C(C)C)C(=O)N[C@@H]([C@H](O)c2ccccc2)C(=O)N[C@@H](C(C)C)C(=O)O[C@@H]1C)C(C)C)C(C)C` [OMS-A, ohmyungsamycin A] (H-[NMeV]VT[NMeT]V[NMeL]V[NMeV][NMeTrp(4-OMe)]V[Phe(3R-OH)]V; ester 3-C): the “binding to double mutant L92S/L96P (in words)” value at ClpC1-FL L92S/L96P is “abolished binding”.

Turning to `C/C=C/C[C@@H]1NC(=O)[C@H](CC(C)C)N(C)C(=O)[C@H](CC(C)C)NC(=O)[C@H](Cc2ccc(O)c([N+](=O)[O-])c2)NC(=O)[C@H](C)N2C(=O)[C@H](CC(C)C2O)N(C)C(=O)[C@H](Cc2cn(C(C)(C)C3CO3)c3ccccc23)NC1=O` (some centres unmarked) [RUF-I, rufomycin I], the “reduction of binding affinity, V14A” value at ClpC1-FL V14A was “eightfold”. Further, the “reduction of binding, Q17A” value on ClpC1-FL Q17A worked out at 17 fold. For the same molecule, on ClpC1-FL K85A, the “reduction of binding affinity, K85A” value is given as “fivefold”. In addition, the “reduction of binding affinity, L92S/L96P” value on ClpC1-FL L92S/L96P was “threefold”. Moreover, the “reduction of binding, insertion of Val before Phe2” value on ClpC1-NTD MVFER is “sixfold”. Moreover, the “reduction of binding affinity, deletion of Met1” value on ClpC1-NTD FER is reported as “fivefold”.
